Measured values from patent publication US20190211397A1, “INHIBITORS OF GPR132 FOR USE IN PREVENTING AND/OR TREATING CHEMOTHERAPY-INDUCED NEUROPATHIC PAIN” (Fraunhofer-Gesellschaft zur Foerderung der angewandten …, priority 2016, published 2019).
Entries after “also recorded” stand apart in the source; their conditions may differ.

Columns and labels:
[1] = system: TRPV1; assay: Whole-cell voltage clamp of DRG neurons, capsaicin-induced inward current; format: cell-based, mice; details: DRG neurons pre-treated with 9-HODE (200 nM, 3 min), capsaicin 1 μM
Procedure: All recordings were carried out at room temperature within 48 hour of plating DRG neurons. Whole-cell voltage clamp recordings were made with an Axopatch 200A amplifier (Molecular Devices) and patch pipettes with resistances of 2-3 MΩ. Pipette solution was 5 mM NaCl, 140 mM KCl, 0.5 mM CaCl2, 2 mM MgCl2, 5 mM EGTA, 10 mM HEPES, and 3 mM Na2ATP, pH 7.2, adjusted with NaOH. The external solution was 140 mM NaCl, 5 mM KCl, 2 mM CaCl2, 2 mM MgCl2, 10 mM HEPES, and 10 mM D-glucose, pH 7.4, adjusted with NaOH (Sigma). Command protocols were generated and data was digitized with a Digidata 1440A A/D interface with pCLAMP10 software. We used gravity perfusion system connected with perfusion pencil (AutoMate Scientific) to externally apply 9-HODE or capsaicin to the cells.

[2] = system: DRG neurons; assay: Neuronal CGRP release from DRG neurons; format: cell-based, mice; details: 9-HODE 1 μM with capsaicin 400 nM, 10 min
Procedure: For the determination of neuronal calcitonin gene-related peptide (CGRP) release, dorsal root ganglia (DRGs) neurons were isolated from mice as previously described (Brenneis et al., 2011 a). Briefly, DRG cultures were stimulated for 10 m in with 1 μM (±) 9-HODE (Cayman) alone or in combination with 400 nM capsaicin (Sigma). Cultures supplemented with capsaicin alone served as control. CGRP concentrations in supernatants were analysed utilizing the rat CGRP Enzyme ImmunoAssay Kit (SPI-Bio, Montigny, France) according to the manufacturer's instructions. Absorption was measured with the help of the Spectra Max 250 (Molecular Devices, lsmaning, Germany)

[3] = target: T1, G2A receptor (GPR132) (Homo sapiens, UniProt Q9UNW8); details: heterologous expression system; cited from earlier work
T1 sequence (Q9UNW8 1-380): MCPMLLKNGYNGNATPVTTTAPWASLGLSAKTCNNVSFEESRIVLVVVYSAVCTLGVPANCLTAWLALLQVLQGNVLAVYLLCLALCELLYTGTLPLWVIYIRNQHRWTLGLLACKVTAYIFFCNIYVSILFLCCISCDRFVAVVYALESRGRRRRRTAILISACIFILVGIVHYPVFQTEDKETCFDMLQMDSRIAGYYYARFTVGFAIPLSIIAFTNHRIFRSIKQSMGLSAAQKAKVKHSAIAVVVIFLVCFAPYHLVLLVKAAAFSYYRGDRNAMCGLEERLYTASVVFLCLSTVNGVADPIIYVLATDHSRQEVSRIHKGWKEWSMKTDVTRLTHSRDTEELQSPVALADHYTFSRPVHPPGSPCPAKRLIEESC

[4] = target: T1, G2A receptor (GPR132); assay: Calcium in HEK cells transfected with G2A (FURA-2); format: cell-based; parameters: expressed in transfected cells; details: HEK cells overexpressing G2A, 9-HODE 1 μM
[5] = system: wild type, TRPV1-deficient and G2A-deficient mice; assay: Mechanical pain thresholds after intraplantar 9-HODE in oxaliplatin-treated mice; format: in vivo; details: for mechanical pain thresholds after intraplantar 9-HODE: day eight after oxaliplatin treatment; for mechanical paw withdrawal latencies after intraplantar 9-HODE: day 8 of oxaliplatin treatment
Text: In all behavioral tests the experimenter was unaware of the treatment and the genotype of the mice. For all behavioral experiments we used only 6-12 weeks old C57BU6N mice purchased from commercial breeding companies (Charles River, Sulzfeld, Germany, Janvier, Le Geneset-Saint-lsle, FR). G2A and TRPV1 knockout strains were from Jackson laboratories. All experiments followed the ethics guidelines for investigations in conscious animals and the procedures were approved by the local Ethics Committee.
For the intra plantar (i.pl.) treatment with 9-HODE (1 0 (JM) (Cayman), a volume of 10 (JI was injected in the mid-plantar area of the hindpaw. For the intraperitoneal (i.p.) treatment, 100 (JI of oxaliplatin (3 mg/kg, Tocris) were injection into the peritoneum. The control group animals were treated with the corresponding volumes of 0.9% saline solution.
To determine the mechanical thresholds of mice, a Dynamic Plantar Aesthesiometer (Ugo Basile, Comerio, Italy) was used. Mice were put on an elevated grid in test cages at least 2 h before the measurement to allow accommodation. Then, baseline measurement was performed before the treatment with Oxaliplatin or 9-HODE. Therefore, a steel rod pushed against the plantar side of the hind paw with linear ascending force (0-5 g over 10 s, in 0.5 g/s intervals) until a fast withdraw of the paw was observed The time between the first contact of the steel rod and the paw withdraw was measured in seconds (paw withdraw latency) and a cut-off time of 20 s was set.

SMILES: CCCCC/C=C\C=C\C(O)CCCCCCCC(=O)O (centres unmarked) [9-HODE, 9-hydroxy-10E,12Z-octadecadienoic acid]
- capsaicin-induced inward current [1]: significantly increased
- capsaicin-dependent CGRP release [2]: increased the capsaicin-dependent CGRP release significantly
- activation of the G2A receptor [3]: can activate the G2A receptor
- intracellular calcium concentrations [4]: caused calcium-release; also recorded: increased intracellular calcium concentrations
- mechanical pain thresholds after intraplantar 9-HODE ([5]; G2A-deficient mice): not in G2A-deficient mice
- mechanical paw withdrawal latencies after intraplantar 9-HODE ([5]; TRPV1-deficient mice): not in TRPV1-deficient mice
- mechanical paw withdrawal latencies after intraplantar 9-HODE ([5]; wild type mice, ipsilateral paw (TRPV1 study)): strong reduction of mechanical paw withdrawal latencies
- mechanical pain thresholds after intraplantar 9-HODE ([5]; wildtype mice, left hind paw (G2A study, 10 μM)): strong reduction of mechanical pain thresholds
